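Compound exposure: 48 hours, 5 concentrations, 96-well plates. The concentration for 50% growth inhibition is given as GI50. TGI denotes the concentration required for complete inhibition of growth.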
Tests used:
Test in all cases: NCI tumour cell line growth inhibition, 48 h
COLO 205 colon = test system: COLO 205 colon
EKVX NSCLC = test system: EKVX NSCLC
OVCAR-3 ovarian = test system: OVCAR-3 ovarian
IGROV1 ovarian = test system: IGROV1 ovarian
UO-31 renal = test system: UO-31 renal
HT29 colon = test system: HT29 colon
KM12 colon = test system: KM12 colon
HS 578T breast = test system: HS 578T breast
HOP-18 NSCLC = test system: HOP-18 NSCLC

| Structure (SMILES) | GI50 (COLO 205 colon) [µM] | TGI (COLO 205 colon) [µM] | GI50 (EKVX NSCLC) [µM] | TGI (EKVX NSCLC) [µM] | GI50 (OVCAR-3 ovarian) [µM] | TGI (OVCAR-3 ovarian) [µM] | GI50 (IGROV1 ovarian) [µM] | TGI (IGROV1 ovarian) [µM] | GI50 (UO-31 renal) [µM] | TGI (UO-31 renal) [µM] | GI50 (HT29 colon) [µM] | TGI (HT29 colon) [µM] | GI50 (KM12 colon) [µM] | TGI (KM12 colon) [µM] | GI50 (HS 578T breast) [µM] | TGI (HS 578T breast) [µM] | TGI (HOP-18 NSCLC) [µM] |
| --- | --- | --- | --- | --- | --- | --- | --- | --- | --- | --- | --- | --- | --- | --- | --- | --- | --- |
| Nc1nc(SCC#CCCl)c2[nH]cnc2n1 | 4.4 | 14.9 | 3.22 | 15.4 | 3.27 | 10.9 | 4.58 | 23 | 2.39 | 11.5 | 4.92 | 18.1 | 6.14 | 18.6 | 3.89 | 56.6 |  |
| COc1ccc(N2C(=O)[C@@H]3[C@@H]4CC(C)CC[C@@H]4c4c([nH]c5ccccc45)[C@@H]3C2=O)cc1 (stereo partly specified) |  | > 55.1 |  | > 100 |  | 37.2 |  | 49.7 |  | > 55.9 |  | > 100 |  | > 100 |  |  | 14 |
| COc1cccc(NC(=O)/C(CS(=O)(=O)CCC(C(C)=O)C(C)=O)=N\NC(C)(C)C)c1 |  | > 100 |  | > 100 |  | > 100 |  | > 100 |  | > 100 |  | > 100 |  | > 100 |  |  | > 100 |
| Oc1ccccc1/C=N\NC(=S)Nc1ccc(F)cc1 | 4.8 | > 43 | 3.91 | > 50.4 | 0.41 | > 69 | 1.31 | 17.7 | 0.472 | 4.97 | 4.49 | 25 | 0.799 | 45 | 5.14 | > 100 |  |
| COC(=O)C(=O)C(C(=O)C(=O)Nc1cc(C)ccc1C)c1nc2ccccc2[nH]c1=O (stereo unspecified) |  | > 100 |  | > 100 |  | > 100 |  | > 100 |  | > 100 |  | > 100 |  | > 100 |  | > 100 |  |
| COc1oc(C2C/C(=C/C(C)=C/C(C)=C/C(C)=C/c3ccc([N+](=O)[O-])cc3)CO2)c(C)c(=O)c1C (stereo unspecified) |  | 24.6 |  | 82.6 |  | 54.9 |  | 42.5 |  | 27.5 |  | > 50 |  | > 48.2 |  | > 31.6 |  |
| O=[N+]([O-])c1ccc(N=P(c2ccccc2)(c2ccccc2)c2ccccc2)n2nnnc12 |  | > 100 |  | > 100 |  | > 100 |  | > 100 |  | > 100 |  | > 100 |  | > 100 |  |  | > 100 |
| N#Cc1ccc2c(-c3ccnc(NC4CC4)n3)c(-c3ccc(F)cc3)nn2c1 | > 25 | > 25 | > 25 | > 25 | > 25 | > 25 | > 25 | > 25 | 6.78 | > 25 | > 25 | > 25 | > 25 | > 25 | > 25 | > 25 |  |
| CC1=Nc2ccccc2S/C1=C1/C=NC(=NC#N)N=C1C(=O)Nc1cccc(Cl)c1 |  | > 100 |  | > 100 |  | > 100 |  | > 100 |  | > 100 |  | > 100 |  | > 100 |  |  | > 100 |

Reference: PubChem BioAssay (NCI)
